In PubChem BioAssay AID624462 (National Center for Advancing Translational Sciences (NCATS), 2012) one finds solubility data, which are given here for one compound.

In this series the test system is PBS pH 7.4 kinetic solubility, LC-UV/MS. In words: qHTS for Inhibitors of mutant isocitrate dehydrogenase 1 (IDH1): Aqueous Kinetic Solubility. As to conditions: stronger effect = higher value. The text has this:
Malignant glioblastomas (WHO grade IV), including primary and secondary glioblastomas, are among the most lethal with a median survival of one year, and unfortunately they are also the most prevalent type of brain tumors. By and large the standard of care of gliomas remains the use of the oral alkylating agent temozolomide and radiotherapy following surgical tumor resection. There is an urgent unmet medical need for novel therapeutics for gliomas. IDH mutations occur in up to 70% of grade II-IV secondary glioblastomas, and IDH1 R132H is the most prevalent mutation. […] Wild-type (WT) IDH1 catalyzes the conversion of isocitrate to a-ketoglutarate with the concomitant reduction of NADP+ to NADPH. In contrast, IDH1 R132H catalyzes the conversion of a-ketoglutarate to 2-hydroxyglutarate (2-HG) with the concomitant oxidation of NADPH to NADP+ [5]. Recently, a second significant advancement for the field was the finding that IDH is an oncogene, and that its metabolic product 2-HG may contribute to the pathogenesis of IDH-mutated cancers. […] Although this link to cancer is tantalizing, the direct evidence of how 2-HG drives pathogenesis of gliomas and AML remains a subject of further research. This bioassays provides profiling data on aqueous kinetic solubility (PBS @ pH7.4) of the IDH probe. […]
1. […] Concentration of the supernatant was determined by LC-UV or LC-MS/MS

In brackets after ≈: the same amount, converted by molar mass.

Broadly, the solubility is the concentration that dissolves in the medium under given conditions. Consider `Cc1ccccc1C(C(=O)NC1CCCC1)N(C(=O)Cn1cnc2ccccc21)c1cccc(F)c1` (stereo unspecified), for which the solubility was 54.3 µM (≈ 26.3 µg/mL).
